Source: ChEMBL document CHEMBL1122267, “Pyridazinones. 3. Synthesis, antisecretory, and antiulcer activities of 2-cyanoguanidine derivatives” (1983)
Active and inactive are the calls of the source. No cut-off for these calls is given here.

Tests used:
Rattus norvegicus [1] = species: Rattus norvegicus; test: Effective dose for 50 percent inhibition of gastric antisecretory activity in the 4 hr pylorus-ligated rat; format: functional; conditions: Stomach
Rattus norvegicus [2] = test: Percent inhibition of gastric antisecretory activity in the 4 hr pylorus-ligated rat to that of control at a dose of 100 mg/kg; format: functional; conditions: Stomach, read-out: Inhibition
Rattus norvegicus [3] = test: Compound was evaluated for antiulcer activity in rats due to stress after oral administration; format: functional
Rattus norvegicus [4] = test: Compound was evaluated for antiulcer activity due to stress in rats after oral administration; not statistically significant; format: functional, organism-based
Rattus norvegicus [5] = test: Percent inhibition of gastric antisecretory activity in the 4 hr pylorus-ligated rat to that of control at a dose of 100 mg/kg; not statistically significant; format: functional; conditions: Stomach
Rattus norvegicus [6] = test: Compound was evaluated for antiulcer activity in rats after oral administration. (stress ulcer); NS means not statistically significant; format: functional, organism-based

SMILES | ED50 (Rattus norvegicus [1]) [mg/kg] | inhibition in vivo at 100 mg/kg (Rattus norvegicus [2]) [%] | ED50 (Rattus norvegicus [3]) [mg/kg] | ED50 (Rattus norvegicus [4]) | inhibition in vivo at 100 mg/kg (Rattus norvegicus [5]) [%] | ED50 (Rattus norvegicus [6])
C/N=C(\NC#N)NCCSCn1nc(-c2ccccc2)ccc1=O | < 30.5 | 83.3 | 28.5 | – | – | –
C/N=C(\NC#N)NCCCOCn1nc(-c2ccccc2)ccc1=O | < 100 | 49.8 | – | inactive | – | –
CN/C(=N\CCSCc1nc[nH]c1C)NC#N [CIMETIDINE] | 60.3 | 80.6 | 43.2 | – | – | –
C/N=C(\NC#N)NCCSCn1nc(N2CCOCC2)ccc1=O | – | – | – | – | -12.5 | inactive
C/N=C(\NC#N)NCCSCn1nc(C)ccc1=O | > 100 | 30 | > 100 | – | – | –
C/N=C(\NC#N)NCCSCn1nc(N(C)C)ccc1=O | – | – | – | – | 6.9 | –
CC/N=C(\NC#N)NCCSCn1nc(-c2ccccc2)ccc1=O | < 100 | 50.1 | 63.1 | – | – | –
CC/N=C(\NC#N)NCCSCCCn1nc(-c2ccccc2)ccc1=O | – | – | – | – | 22.9 | –
C/N=C(\NC#N)NCCOCn1nc(-c2ccccc2)ccc1=O | < 82.3 | 60.6 | > 100 | – | – | –
CCC/N=C(\NC#N)NCCSCn1nc(-c2ccccc2)ccc1=O | > 100 | 37.3 | 97.6 | – | – | –
C/N=C(\NC#N)NCCSCn1nc(-c2ccc(Cl)cc2)ccc1=O | < 39.1 | 70.3 | – | – | – | –
C/N=C(\NC#N)NCCSCn1nc(-c2ccc(C)cc2)ccc1=O | < 53.8 | 62.5 | – | – | – | –
CC/N=C(\NC#N)NCCSCCn1nc(-c2ccccc2)ccc1=O | < 100 | 50.8 | – | – | – | –
C/N=C(\NC#N)NCCCCOCn1nc(-c2ccccc2)ccc1=O | > 100 | 32.8 | – | inactive | – | –
CC/N=C(\NC#N)NCCSCn1nc(C)ccc1=O | > 100 | 26.7 | – | – | – | –
C/N=C(\NC#N)NCCCCn1nc(-c2ccccc2)ccc1=O | 32.4 | 79 | 38.5 | – | – | –
CCC/N=C(\NC#N)NCCSCCn1nc(-c2ccccc2)ccc1=O | > 100 | 33.5 | – | – | – | –
C/N=C(\NC#N)NCCSCCn1nc(-c2ccccc2)ccc1=O | < 80 | 58.3 | 77.6 | – | – | –
C/N=C(\NC#N)NCCSCCCn1nc(-c2ccccc2)ccc1=O | – | – | > 100 | – | 18.2 | –
